Results on 7 compounds are retold here after the NIST ThermoML archive (doi:10.1021/je1005517).

This data set in a line: activity coefficient (dimensionless); of the first substance listed, at infinite dilution; xn = mol fraction of the nth substance listed. The note with it: 101 kPa, Liquid, GC, x1 = 0.

± gives the expanded uncertainty stated by the source.

In the case of `ClC(Cl)(Cl)Cl` [tetrachloromethane] + CCCCCCCCCCCCCCCCCCO, the activity coefficient was found to be 0.0288 ± 0.0017 (333.15 K); 0.0285 ± 0.0017 (338.15 K); 0.0283 ± 0.0017 (343.15 K); 0.028 ± 0.0017 (348.15 K); 0.0278 ± 0.0017 (353.15 K).
In the case of `C1CCOC1` [tetrahydrofuran] + CCCCCCCCCCCCCCCCCCCCO, the activity coefficient was found to be 0.0581 ± 0.0035 (338.15 K), 0.0543 ± 0.0033 (343.15 K), 0.0506 ± 0.003 (348.15 K) and 0.0471 ± 0.0028 (353.15 K).
For the compound `C1CCOC1` [tetrahydrofuran] + CCCCCCCCCCCCCCCCCCO, the activity coefficient stood at 0.0204 ± 0.0012 (333.15 K); 0.0188 ± 0.0011 (338.15 K); 0.0177 ± 0.0011 (343.15 K); 0.0166 ± 0.001 (348.15 K); 0.0156 ± 0.0009 (353.15 K).
In the case of `Cc1ccccc1` [toluene] + CCCCCCCCCCCCCCCCCCCCO, the activity coefficient by setting is: (338.15 K) 0.544 ± 0.033; (343.15 K) 0.479 ± 0.029; (348.15 K) 0.421 ± 0.025; (353.15 K) 0.373 ± 0.022.
With `Cc1ccccc1` [toluene] + CCCCCCCCCCCCCCCCCCO, the activity coefficient (333.15 K) was found to be 0.0372 ± 0.0022; the activity coefficient (338.15 K) was 0.0355 ± 0.0021; the activity coefficient (343.15 K) turned out to be 0.0343 ± 0.0021; the activity coefficient (348.15 K) came to 0.0331 ± 0.002; the activity coefficient (353.15 K) amounted to 0.0318 ± 0.0019.
As to `ClC(Cl)Cl` [trichloromethane] + CCCCCCCCCCCCCCCCCCCCO, the activity coefficient is, setting by setting: (338.15 K) 0.0632 ± 0.0038; (343.15 K) 0.0622 ± 0.0037; (348.15 K) 0.0612 ± 0.0037; (353.15 K) 0.0604 ± 0.0036.
In the case of `ClC(Cl)Cl` [trichloromethane] + CCCCCCCCCCCCCCCCCCO, the activity coefficient stood at 0.0227 ± 0.0014 (333.15 K); 0.022 ± 0.0013 (338.15 K); 0.0214 ± 0.0013 (343.15 K); 0.0208 ± 0.0012 (348.15 K); 0.0202 ± 0.0012 (353.15 K).
